In US20250313574A1, “SIALIC ACID DERIVATIVES AND METHODS OF USING SAME” (EISAI R&D MANAGEMENT CO., LTD., priority 2022, published 2025):

The compounds below were run against Recombinant human CD33 protein (Homo sapiens (Human), UniProt P20138) (assay: CD33 competitive binding assay for HTS drug screen (fluorescent multivalent sialic acid probe)).
Description: This is a competitive binding assay that uses recombinant CD33 immobilized to a plate and a fluorescently-labeled multivalent sialic acid analog as a probe. Binding of drug to the site on CD33 to which sialic acid binds is detected by reduced binding of the fluorescent probe. Recombinant human CD33 protein (for example Acro Biosystems cat #CD3-H5257) was added at a concentration of 10 μg/ml in 20 mM acetate buffer (pH5.5) to a black plastic plate (Corning 4510) and allowed to incubate overnight at 4° C. The next day, the wells were washed 3 times with PBS containing 0.02% Tween-20. This was followed by a 30-minute incubation with PBS containing 0.2% Tween-20 and 0.5% BSA to block non-specific binding to the well. This buffer is removed and replaced with 10 μl of the same buffer, which is also used as the assay buffer. The fluorescent multivalent sialic acid probe was prepared as a 4× concentration as follows. A biotinylated sialic acid analog A-375 was mixed with biotin-4-Fluorescein isothiocyanate (biotin-4-FITC) at a 3:1 molar ratio with final concentrations (4× stock) of 60 μM A-375 and 20 μM biotin-4-FITC. After these were mixed, 20 μM of neutravidin was added, which should form complexes consisting of neutravidin, fluorescein and sialic acid with an average complex consisting of 1 neutravidin, 1 FITC and 3 sialic acid analogs. The multimerization of the sialic acid analog is critical to the assay and improves the affinity of the sialic acid analog several orders of magnitude. A test compound, for example A-001, is added at 5 μl to the 10 μl assay buffer already in the well. After a brief incubation, 5 μl of the 4× stock solution of sialic acid complexes was added. The final concentration of the complexes was therefore 5 μM neutravidin, 15 μM A-375 and 5 μM FITC. The plate was incubated at room temperature for 30 mins and then washed with PBS containing 0.2% Tween-20. Binding of the sialic acid complex is very stable, with an off-rate of several days. Bound complex was then detected using a standard plate reader to quantify FITC fluorescence.

Chain of Recombinant human CD33 protein (P20138 18-259): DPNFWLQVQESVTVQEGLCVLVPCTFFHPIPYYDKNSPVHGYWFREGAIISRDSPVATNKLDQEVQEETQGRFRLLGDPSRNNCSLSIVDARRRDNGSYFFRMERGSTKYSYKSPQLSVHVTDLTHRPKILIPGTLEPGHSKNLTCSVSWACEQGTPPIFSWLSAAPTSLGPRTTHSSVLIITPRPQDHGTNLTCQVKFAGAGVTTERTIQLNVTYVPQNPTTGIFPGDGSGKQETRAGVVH

EC50 [nM] | Compound
17400 | Cc1cc(C(=O)NCC(O)C[C@@H]2O[C@@](C/C=C/C3CCN(C(=O)OC(C)(C)C)C3)(C(=O)O)CCC2C)cc2cc[nH]c12 (single isomer, unassigned) [A-212]
17900 | Cc1cc(C(=O)NCC(O)C[C@@H]2O[C@@](CCN3CCOC[C@@]34CCN(C(=O)OC(C)(C)C)C4)(C(=O)O)CCC2C)cc(C)c1O (single isomer, unassigned) [A-213]
9800 | Cc1cc(C(=O)NCC(O)C[C@@H]2O[C@@](CCN3CCOC[C@@]34CCN(C(=O)OC(C)(C)C)C4)(C(=O)O)CCC2C)cc(C)c1O (single isomer, unassigned) [A-214]
538 | CC(=O)N[C@H]1[C@H]([C@H](O)[C@H](O)CNC(=O)c2cc(C)c(O)c(C)c2)O[C@@](CCN2CCOCC23CN(C(=O)OC(C)(C)C)C3)(C(=O)O)C[C@@H]1O [A-008]
28 | CC(=O)N[C@H]1[C@H]([C@H](O)[C@H](O)CNC(=O)c2cc(C)c(O)c(C)c2)O[C@@](CCN2CCC[C@@]23CCN(C(=O)OC(C)(C)C)C3)(C(=O)O)C[C@@H]1O [A-019]
2930 | CC(=O)N[C@H]1[C@H]([C@H](O)[C@H](O)CNC(=O)c2cc(C)c(O)c(C)c2)O[C@@](CCN2CCCCC23CCN(C(=O)OC(C)(C)C)C3)(C(=O)O)C[C@@H]1O (stereo partly shown) [A-022]
176 | C=C(OC(C)(C)C)N1CCC2(CC1)CCN2CC[C@]1(C(=O)O)C[C@H](O)[C@@H](NC(C)=O)[C@H]([C@H](O)[C@H](O)CNC(=O)c2cc(C)c(O)c(C)c2)O1 [A-023]
49 | COC[C@@]1(NCC[C@]2(C(=O)O)C[C@H](O)[C@@H](NC(C)=O)[C@H]([C@H](O)[C@H](O)CNC(=O)c3cc(C)c(O)c(C)c3)O2)CCN(C(=O)OC(C)(C)C)C1 [A-030]
70 | COC[C@@]1(N(C)CC[C@]2(C(=O)O)C[C@H](O)[C@@H](NC(C)=O)[C@H]([C@H](O)[C@H](O)CNC(=O)c3cc(C)c(O)c(C)c3)O2)CCN(C(=O)OC(C)(C)C)C1 [A-031]
53 | CC(=O)N[C@H]1[C@H]([C@H](O)[C@H](O)CNC(=O)c2cc(C)c(O)c(C)c2)O[C@@](CCN2CCOC[C@@]23CCN(c2cc(C)ccn2)C3)(C(=O)O)C[C@@H]1O [A-038]
95 | CC(=O)N[C@H]1[C@H]([C@H](O)[C@H](O)CNC(=O)c2cc(C)c(O)c(C)c2)O[C@@](CCN2CCOC[C@@]23CCN(c2cc(C(F)(F)F)ccn2)C3)(C(=O)O)C[C@@H]1O [A-039]
147 | CC(=O)N[C@H]1[C@H]([C@H](O)[C@H](O)CNC(=O)c2cc(C)c(O)c(C)c2)O[C@@](CCN2CCOC[C@@]23CCN(C(=O)NC2(c4ccccc4)CC2)C3)(C(=O)O)C[C@@H]1O [A-054]
247 | CC(=O)N[C@H]1[C@H]([C@H](O)[C@H](O)CNC(=O)c2cc(C)c(O)c(C)c2)O[C@@](CCN2CCOC[C@@]23CCN(C(=O)NC(C)(C)c2ccccc2)C3)(C(=O)O)C[C@@H]1O [A-055]
153 | CC(=O)N[C@H]1[C@H]([C@H](O)[C@H](O)CNC(=O)c2cc(C)c(O)c(C)c2)O[C@@](CCN2CCOC[C@@]23CCN(C(=O)N[C@H](C)c2ccc(Br)cc2)C3)(C(=O)O)C[C@@H]1O [A-056]
101 | CC(=O)N[C@H]1[C@H]([C@H](O)[C@H](O)CNC(=O)c2cc(C)c(O)c(C)c2)O[C@@](CCN2CCOC[C@@]23CCN(C(=O)CC(C)c2ccccc2)C3)(C(=O)O)C[C@@H]1O (stereo partly shown) [A-068]
206 | CC(=O)N[C@H]1[C@H]([C@H](O)[C@H](O)CNC(=O)c2cc(C)c(O)c(C)c2)O[C@@](CCN2CCOC[C@@]23CCN(C(=O)CC2CCOCC2)C3)(C(=O)O)C[C@@H]1O [A-073]
1950 | CC(=O)N[C@H]1[C@H]([C@H](O)[C@H](O)CNC(=O)c2cc(C)c(O)c(C)c2)O[C@@](CCN2CCOC[C@@]23CCN(C(=O)C(C)(C)Oc2ccccc2)C3)(C(=O)O)C[C@@H]1O [A-081]
1000 | CC(=O)N[C@H]1[C@H]([C@H](O)[C@H](O)CNC(=O)c2cc(C)c(O)c(C)c2)O[C@@](CCN2CCOC[C@@]23CCN(C(=O)COCC(C)C)C3)(C(=O)O)C[C@@H]1O [A-083]
> 5000 | CC(=O)N[C@H]1[C@H]([C@H](O)[C@H](O)CNC(=O)c2cc(C)c(O)c(C)c2)O[C@@](CCN2CCOC[C@@]23CCN(C(=O)c2c(C)cccc2C)C3)(C(=O)O)C[C@@H]1O [A-086]
5260 | CC(=O)N[C@H]1[C@H]([C@H](O)[C@H](O)CNC(=O)c2cc(C)c(O)c(C)c2)O[C@@](CCN2CCOC[C@@]23CCN(C(=O)c2ccccn2)C3)(C(=O)O)C[C@@H]1O [A-087]

Second part, the compound before the results:

Compound | EC50 [nM]
Cc1cc(C(=O)NCC(O)C[C@@H]2O[C@@](C/C=C/C3CCN(C(=O)OC(C)(C)C)C3)(C(=O)O)CCC2C)cc(C)c1O (single isomer, unassigned) [A-209] | 44500
Cc1cc(C(=O)NCC(O)C[C@@H]2O[C@@](C/C=C/C3CCN(C(=O)OC(C)(C)C)C3)(C(=O)O)CCC2C)cc(C)c1O (single isomer, unassigned) [A-210] | 21400
Cc1cc(C(=O)NCC(O)C[C@@H]2O[C@@](C/C=C/C3CCN(C(=O)OC(C)(C)C)C3)(C(=O)O)CCC2C)cc2cc[nH]c12 (single isomer, unassigned) [A-211] | 15200
Cc1cc(C(=O)NCC(O)C[C@@H]2O[C@@](CCN3CCOC[C@@]34CCN(C(=O)OC(C)(C)C)C4)(C(=O)O)CCC2C)cc(C)c1O (single isomer, unassigned) [A-215] | 60400
CC(=O)N[C@H]1[C@H]([C@H](O)[C@H](O)CNC(=O)c2cc(C)c(O)c(C)c2)O[C@@](CCN2CCOCC23CCN(C(=O)OC(C)(C)C)CC3)(C(=O)O)C[C@@H]1O [A-007] | 811
CC(=O)N[C@H]1[C@H]([C@H](O)[C@H](O)CNC(=O)c2cc(C)c(O)c(C)c2)O[C@@](CCN2CCC23CCN(C(=O)OC(C)(C)C)C3)(C(=O)O)C[C@@H]1O (stereo partly shown) [A-018] | 162
CC(=O)N[C@H]1[C@H]([C@H](O)[C@H](O)CNC(=O)c2cc(C)c(O)c(C)c2)O[C@@](CCN2CCC[C@]23CCN(C(=O)OC(C)(C)C)C3)(C(=O)O)C[C@@H]1O [A-020] | 472
C=C(OC(C)(C)C)N1CC2(CCN2CC[C@]2(C(=O)O)C[C@H](O)[C@@H](NC(C)=O)[C@H]([C@H](O)[C@H](O)CNC(=O)c3cc(C)c(O)c(C)c3)O2)C1 [A-021] | 887
CC(=O)N[C@H]1[C@H]([C@H](O)[C@H](O)CNC(=O)c2cc(C)c(O)c(C)c2)O[C@@](CCN2CCOC[C@@]23CCN(c2cc(N(C)C)ccn2)C3)(C(=O)O)C[C@@H]1O [A-041] | 580
C=C(C)c1ccc(C(C)(C)NC(=O)N2CC[C@@]3(COCCN3CC[C@]3(C(=O)O)C[C@H](O)[C@@H](NC(C)=O)[C@H]([C@H](O)[C@H](O)CNC(=O)c4cc(C)c(O)c(C)c4)O3)C2)cc1 [A-046] | 63
CC(=O)N[C@H]1[C@H]([C@H](O)[C@H](O)CNC(=O)c2cc(C)c(O)c(C)c2)O[C@@](CCN2CCOC[C@@]23CCN(C(=O)NC(C)(C)C(C)C)C3)(C(=O)O)C[C@@H]1O [A-050] | 20
CC(=O)N[C@H]1[C@H]([C@H](O)[C@H](O)CNC(=O)c2cc(C)c(O)c(C)c2)O[C@@](CCN2CCOC[C@@]23CCN(C(=O)C2CCCCC2)C3)(C(=O)O)C[C@@H]1O [A-067] | 63
CC(=O)N[C@H]1[C@H]([C@H](O)[C@H](O)CNC(=O)c2cc(C)c(O)c(C)c2)O[C@@](CCN2CCOC[C@@]23CCN(C(=O)CC(C)(C)C)C3)(C(=O)O)C[C@@H]1O [A-072] | 230
CC(=O)N[C@H]1[C@H]([C@H](O)[C@H](O)CNC(=O)c2cc(C)c(O)c(C)c2)O[C@@](CCN2CCOC[C@@]23CCN(C(=O)C2CCC(F)(F)C2)C3)(C(=O)O)C[C@@H]1O (stereo partly shown) [A-074] | 263
CC(=O)N[C@H]1[C@H]([C@H](O)[C@H](O)CNC(=O)c2cc(C)c(O)c(C)c2)O[C@@](CCN2CCOC[C@@]23CCN(C(=O)C2CCC(F)(F)CC2)C3)(C(=O)O)C[C@@H]1O [A-075] | 99
CC(=O)N[C@H]1[C@H]([C@H](O)[C@H](O)CNC(=O)c2cc(C)c(O)c(C)c2)O[C@@](CCN2CCOC[C@@]23CCN(C(=O)C(C)C2CCCCC2)C3)(C(=O)O)C[C@@H]1O (stereo partly shown) [A-076] | 226
CC(=O)N[C@H]1[C@H]([C@H](O)[C@H](O)CNC(=O)c2cc(C)c(O)c(C)c2)O[C@@](CCN2CCOC[C@@]23CCN(C(=O)C2(C)CCCO2)C3)(C(=O)O)C[C@@H]1O (stereo partly shown) [A-077] | 283
COC(C)C(=O)N1CC[C@@]2(COCCN2CC[C@]2(C(=O)O)C[C@H](O)[C@@H](NC(C)=O)[C@H]([C@H](O)[C@H](O)CNC(=O)c3cc(C)c(O)c(C)c3)O2)C1 (stereo partly shown) [A-082] | > 5000
CC(=O)N[C@H]1[C@H]([C@H](O)[C@H](O)CNC(=O)c2cc(C)c(O)c(C)c2)O[C@@](CCN2CCOC[C@@]23CCN(C(=O)COC(C)C)C3)(C(=O)O)C[C@@H]1O [A-084] | 1560
COC(C)(C)C(=O)N1CC[C@@]2(COCCN2CC[C@]2(C(=O)O)C[C@H](O)[C@@H](NC(C)=O)[C@H]([C@H](O)[C@H](O)CNC(=O)c3cc(C)c(O)c(C)c3)O2)C1 [A-085] | 1280
